Structures can show the parent of a compound that is named as a salt. Where two headings read alike, the source gives them in different places.
Experiment: pKa values
Format: physicochemical

| pKa value (third printed) (third of three pKa values, hydrochloride) | pKa (first of three pKa values, read-out: pKa value (first given)) | pKa (second of three pKa values, read-out: pKa value) | pKa (third of three pKa values, read-out: pKa value (third printed)) | Compound |
| --- | --- | --- | --- | --- |
| 9.3 | – | – | – | CN(C)c1ccc(O)c2c1C[C@H]1C[C@H]3[C@H](N(C)C)C(O)=C(C(N)=O)C(=O)[C@@]3(O)C(O)=C1C2=O [minocycline hydrochloride] |
| – | 3.5 | 7.6 | 9.2 | CN(C)c1ccc(O)c2c1C[C@H]1C[C@H]3[C@H](N(C)C)C(O)=C(C(N)=O)C(=O)[C@@]3(O)C(O)=C1C2=O [minocycline] |

Reference: patent US11596641B2, “Methods and compositions for treating meibomian gland dysfunction” (priority 2020, dated 2023)
